# Measured values published in ChEMBL document CHEMBL3739322, “Novel oxime-bearing coumarin derivatives act as potent Nrf2/ARE activators in vitro and in mouse model” (Eur J Med Chem, 2015).
# The source made the active and inactive calls. The calls are words filed in the database; no cut-off is given here.
# Tests used:
# [1] = system: Mus musculus; assay: Induction of Nrf2-mediated cytoprotective activity in C57BL/6J mouse assessed as increase of HO-1 level in liver at 50 mg/kg, po qd for 7 days measured after 24 hrs of last dose; type: functional, organism-based
# [2] = system: Mus musculus; assay: Toxicity in C57BL/6J mouse assessed as change in body weight at 50 mg/kg, po qd for 7 days; type: organism-based; conditions: in vivo, 168 h
# [3] = target: T1, Nuclear factor erythroid 2-related factor 2 (Homo sapiens) (UniProt Q16236); assay: Increase of Nrf2 phosphorylation at ser-40 in human HSC3 cells at 50 uM after 24 hrs by Western blot analysis relative to control; type: cell-based; conditions: HSC-3
# T1 sequence (whole entry): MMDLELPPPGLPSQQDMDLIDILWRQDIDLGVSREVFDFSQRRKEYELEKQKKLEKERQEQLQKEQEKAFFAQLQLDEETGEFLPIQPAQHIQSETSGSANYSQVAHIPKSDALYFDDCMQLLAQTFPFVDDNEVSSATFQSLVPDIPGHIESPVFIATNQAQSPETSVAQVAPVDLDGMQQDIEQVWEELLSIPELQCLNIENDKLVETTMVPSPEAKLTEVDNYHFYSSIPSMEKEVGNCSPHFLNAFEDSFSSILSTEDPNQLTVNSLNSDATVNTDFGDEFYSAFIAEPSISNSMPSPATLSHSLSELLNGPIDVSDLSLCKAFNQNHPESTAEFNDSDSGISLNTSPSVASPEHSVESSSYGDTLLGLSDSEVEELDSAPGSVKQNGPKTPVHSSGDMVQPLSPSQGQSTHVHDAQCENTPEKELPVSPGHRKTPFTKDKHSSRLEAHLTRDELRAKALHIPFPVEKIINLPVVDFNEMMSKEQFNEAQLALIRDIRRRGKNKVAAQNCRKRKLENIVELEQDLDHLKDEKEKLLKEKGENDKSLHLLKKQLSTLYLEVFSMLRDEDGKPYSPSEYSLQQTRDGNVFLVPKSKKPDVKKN
# [4] = target: T1, Nuclear factor erythroid 2-related factor 2 (Homo sapiens); assay: Activation of Nrf2 in human HSC3-ARE9 cells assessed as increase of ARE-mediated luciferase expression at 50 uM after 24 hrs in presence of PI3K inhibitor LY294002; type: cell-based
# [5] = target: T1, Nuclear factor erythroid 2-related factor 2 (Homo sapiens); assay: Activation of Nrf2 in human HSC3-ARE9 cells assessed as increase of ARE-mediated luciferase expression at 50 uM after 24 hrs in presence of PKC inhibitor Ro-31-8220; type: cell-based
# [6] = target: T1, Nuclear factor erythroid 2-related factor 2 (Homo sapiens); assay: Activation of Nrf2 in human HSC3-ARE9 cells assessed as increase of ARE-mediated luciferase expression at 50 uM after 24 hrs in presence of MEK inhibitor U0126; type: cell-based
# [7] = target: T1, Nuclear factor erythroid 2-related factor 2 (Homo sapiens); assay: Activation of Nrf2 in human HSC3-ARE9 cells assessed as increase of ARE-mediated luciferase expression at 50 uM after 24 hrs in presence of p38 inhibitor SB203580; type: cell-based
# [8] = Antioxidant activity assessed as DPPH radical scavenging activity; type: physicochemical
# [9] = target: T1, Nuclear factor erythroid 2-related factor 2 (Homo sapiens); assay: Activation of Nrf2 in human HSC3-ARE9 cells assessed as increase of ARE-mediated GR mRNA expression at 50 uM after 24 hrs by RT-PCR analysis relative to control; type: cell-based
# [10] = target: T1, Nuclear factor erythroid 2-related factor 2 (Homo sapiens); assay: Activation of Nrf2 in human HSC3-ARE9 cells assessed as increase of ARE-mediated NQO1 mRNA expression at 50 uM after 24 hrs by RT-PCR analysis relative to control; type: cell-based
# [11] = target: T1, Nuclear factor erythroid 2-related factor 2 (Homo sapiens); assay: Activation of Nrf2 in human HSC3-ARE9 cells assessed as increase of ARE-mediated Prx1 mRNA expression at 50 uM after 24 hrs by RT-PCR analysis relative to control; type: cell-based
# [12] = target: T1, Nuclear factor erythroid 2-related factor 2 (Homo sapiens); assay: Activation of Nrf2 in human HSC3-ARE9 cells assessed as increase of ARE-mediated AKR1C1 protein expression after 24 hrs by Western blot analysis; type: cell-based
# [13] = target: T1, Nuclear factor erythroid 2-related factor 2 (Homo sapiens); assay: Activation of Nrf2 in human HSC3-ARE9 cells assessed as increase of ARE-mediated GCLC protein expression after 24 hrs by Western blot analysis; type: cell-based
# [14] = target: T1, Nuclear factor erythroid 2-related factor 2 (Homo sapiens); assay: Activation of Nrf2 in human HSC3-ARE9 cells assessed as increase of ARE-mediated Prx1 protein expression after 24 hrs by Western blot analysis; type: cell-based
# [15] = target: T1, Nuclear factor erythroid 2-related factor 2 (Homo sapiens); assay: Activation of Nrf2 in human HSC3-ARE9 cells assessed as increase of protein level in nucleus after 24 hrs by Western blot analysis; type: cell-based
# [16] = system: HSC-3; assay: Inhibition of t-BOOH-induced oxidative stress in human HSC3 cells assessed as intracellular ROS level at 50 uM after 24 hrs by DCF fluorescence assay; type: functional, cell-based
# [17] = system: Mus musculus; assay: Induction of Nrf2-mediated cytoprotective activity in C57BL/6J mouse assessed as increase of AKR1C1 level in liver at 50 mg/kg, po qd for 7 days measured after 24 hrs of last dose; type: functional, organism-based
# [18] = system: Mus musculus; assay: Induction of Nrf2-mediated cytoprotective activity in C57BL/6J mouse assessed as increase of GR level in liver at 50 mg/kg, po qd for 7 days measured after 24 hrs of last dose; type: functional, organism-based
# [19] = target: T1, Nuclear factor erythroid 2-related factor 2 (Homo sapiens); assay: Activation of Nrf2 in human HSC3-ARE9 cells assessed as increase of ARE-mediated luciferase expression at 50 uM after 24 hrs relative to control; type: cell-based
# [20] = target: T1, Nuclear factor erythroid 2-related factor 2 (Homo sapiens); assay: Activation of Nrf2 in human HSC3-ARE9 cells assessed as increase of ARE-mediated luciferase expression after 24 hrs; type: cell-based
# [21] = Cytotoxicity against human HSC3 cells after 24 hrs by MTT assay; type: cell-based; conditions: hsc-3, 24 h
# [22] = target: T1, Nuclear factor erythroid 2-related factor 2 (Homo sapiens); assay: Activation of Nrf2 in human HSC3-ARE9 cells assessed as increase of ARE-mediated ABCC3 mRNA expression at 50 uM after 24 hrs by RT-PCR analysis relative to control; type: cell-based
# [23] = target: T1, Nuclear factor erythroid 2-related factor 2 (Homo sapiens); assay: Activation of Nrf2 in human HSC3-ARE9 cells assessed as increase of ARE-mediated AKR1C1 mRNA expression at 50 uM after 24 hrs by RT-PCR analysis relative to control; type: cell-based
# [24] = target: T1, Nuclear factor erythroid 2-related factor 2 (Homo sapiens); assay: Activation of Nrf2 in human HSC3-ARE9 cells assessed as increase of ARE-mediated AKR1C2 mRNA expression at 50 uM after 24 hrs by RT-PCR analysis relative to control; type: cell-based
# [25] = target: T1, Nuclear factor erythroid 2-related factor 2 (Homo sapiens); assay: Activation of Nrf2 in human HSC3-ARE9 cells assessed as increase of ARE-mediated AKR1C3 mRNA expression at 50 uM after 24 hrs by RT-PCR analysis relative to control; type: cell-based
# [26] = target: T1, Nuclear factor erythroid 2-related factor 2 (Homo sapiens); assay: Activation of Nrf2 in human HSC3-ARE9 cells assessed as increase of ARE-mediated GCLC mRNA expression at 50 uM after 24 hrs by RT-PCR analysis relative to control; type: cell-based
smiles,measurement,setting,value
O=c1oc2ccccc2cc1OC/C(=N\O)c1ccccc1,Activity,[1],Active
same,Activity,[2],Non-toxic
same,Activity,[3],126%
same,Activity,[4],inactive
same,Activity,[5],inactive
same,Activity,[6],Active
same,Activity,[7],Active
same,EC50,[8],> 400 µM
same,fold change (FC),[9],1.3
same,fold change (FC),[10],1.2
same,fold change (FC),[11],1.6
same,Activity,[12],Dose-dependent effect
same,Activity,[13],Dose-dependent effect
same,Activity,[14],Dose-dependent effect
same,Activity,[15],Dose-dependent effect
same,inhibition,[16],Active
same,Activity,[17],Active
same,Activity,[18],Active
same,fold change (FC),[19],3.45
same,Activity,[20],Dose-dependent effect
same,Activity,[21],Non-toxic
same,fold change (FC),[22],1.3
same,fold change (FC),[23],1.5
same,fold change (FC),[24],1.4
same,fold change (FC),[25],1.3
same,fold change (FC),[26],1.6
